Experimental data reported in patent US20110160444A1, “Cloning Transcription Factor Gene OsWOX20 That Regulates The Growth and Development of Monocotyledon's Root and Uses Thereof” (Huazhong Agricultural University, priority 2007, published 2011).

How the values were obtained:
OsWOX20 gene expression = assay: Induced expression of rice endogenous gene OsWOX20 by realtime-PCR; format: in vivo, rice variety Zhonghua No. 11; details: 10 μM, roots of seedlings soaked; for Time after which level of expression of OsWOX20 began to rise / Time at which level of expression of OsWOX20 reached peak: exogenous auxin; for Induction of expression of OsWOX20 gene: samples 0-24 h, normalized to actin1
Method: The rice variety “Zhonghua No. 11” was used as the research material and treated with auxin, cytokinin, an auxin inhibitor and light at day ten after germination. Auxin treatment was done by soaking the roots of the seedlings with 10 μM IAA (indoleacetic acid) and 10 μM NAA (naphthaleneacetic acid) and taking samples at 0 h, 0.5 h, 1 h, 2 h, 3 h, 4 h, 6 h, 9 h, 12 h and 24 h. Cytokinin treatment was done by soaking the roots of the seedlings with 10 μM 6-BA (6-benzylaminopurine) and taking samples at 0 h, 0.5 h, 1 h, 2 h, 3 h, 4 h, 6 h, 9 h, 12 h and 24 h. Auxin inhibitor NPA (N-1-naphthylphthalamic acid) treatment was performed by soaking the roots of the seedlings in 1 μM NPA solution and taking samples at 0 h, 0.5 h, 1 h, 2 h, 3 h, 4 h, 6 h, 9 h, 12 h and 24 h. Light treatment was carried out by allowing the seeds of rice variety “Zhonghua No. 11” to germinate in dark, then placing the seedlings which have germinated for 5 days in dark under light for growth, and sampling at 1 h, 2 h, 4 h, 8 h and 12 h after light illumination. Total RNAs were extracted from whole plants (Trizol reagent, purchased from Invitrogen) and reverse transcribed according to the method described in Example 4. The reverse transcription product was subjected to quantitative PCR in a reaction system of 25 μl containing 1.5 μl of reverse transcription product, 0.25 μM of each of left and right primers and 12.5 μl of SYBR Green mixture (Applied Biosystems). The PCR reaction was performed on a 7500 real-time quantitative PCR amplifier (Applied Biosystems) according to the protocol described in the manufacturer's manual provided by Applied Biosystems, with rice actin1 gene as the internal reference of the reaction. All primers were annealed at 58° C. and reaction was performed for 40 cycles. Each sample was assayed in triplicate and normalized to the level of expression of actin1. […] The OsWOX20 primers used in the quantitative PCR were: […]

wild-type plants = assay: Effect of auxin inhibitor (NPA) on root length and numbers of crown and lateral roots, wild-type plants; format: in vivo, rice; details: treated with 10^-6 mol/L NPA
Excerpt: (§1) 2) In order to compare the root system of transgenic OWOX20 lines with increased number of roots to that of wild-type lines, we collected seeds from five transgenic OWOX20 lines after the seeds were completely ripe and allowed the seeds to germinate to investigate growth of the roots.

[1] = test system: transgenic plants (OsWOX20 overexpression lines 1-3); assay: Effect of auxin inhibitor (NPA) on root length and numbers of crown and lateral roots, OsWOX20 transgenic plants; format: in vivo, rice; details: for Length of roots / Number of crown roots / Number of lateral roots: treated with 10^-6 mol/L NPA
Excerpt: as §1

O=C(O)Cc1cccc2ccccc12 [NAA, naphthaleneacetic acid]
Time after which level of expression of OsWOX20 began to rise (OsWOX20 gene expression): 30 min | Time at which level of expression of OsWOX20 reached peak (OsWOX20 gene expression): about 1 hour

c1ccc(CNc2ncnc3nc[nH]c23)cc1 [6-BA, 6-benzylaminopurine]
Induction of expression of OsWOX20 gene (OsWOX20 gene expression): can be induced

O=C(O)c1ccccc1C(=O)Nc1cccc2ccccc12 [NPA, N-1-naphthylphthalamic acid]
Length of roots (wild-type plants): 4.8 ± 0.5 cm | Number of crown roots (wild-type plants): 3 ± 0 | Number of lateral roots (wild-type plants): 6.4 ± 2.8 | Growth of the roots ([1]; seeds from lines having increased number of roots, 10^-6 mol/L NPA): markedly inhibited | Length of roots ([1]; transgenic Line 1+): 1.1 ± 0.3 cm | Number of crown roots ([1]; transgenic Line 1+): 3.0 ± 2.7 | Number of lateral roots ([1]; transgenic Line 1+): 0 | Length of roots ([1]; transgenic Line 2+): 1.3 ± 0.6 cm | Number of crown roots ([1]; transgenic Line 2+): 1.7 ± 0.6 | Number of lateral roots ([1]; transgenic Line 2+): 0 | Length of roots ([1]; transgenic Line 3+): 1.0 ± 0.6 cm | Number of crown roots ([1]; transgenic Line 3+): 3.0 ± 1.0 | Number of lateral roots ([1]; transgenic Line 3+): 0 | Numbers and length of crown roots and lateral roots versus untreated plant lines ([1]; transgenic plant lines in the presence of NPA): significantly decreased

O=C(O)Cc1c[nH]c2ccccc12 [IAA, indoleacetic acid]
Induction of expression of OsWOX20 gene (OsWOX20 gene expression): can be induced | Time after which level of expression of OsWOX20 began to rise (OsWOX20 gene expression): 30 min | Time at which level of expression of OsWOX20 reached peak (OsWOX20 gene expression): about 1 hour
